Reference: patent publication US20240199590A1, “SOLID FORMS OF A SGC ACTIVATOR” (Boehringer Ingelheim International GmbH, priority 2022, published 2024)

Key:
Assay type in all cases: physicochemical
[1] = Solid form stability (tendency to convert to a different solid form, high RH)
Protocol: (§1) Water sorption isotherms are determined using a dynamic vapor sorption system (Advantage 1, DVS, London, UKDVS Intrinsic Plus, Surface Measurement Systems, Allentown, PA).
(§2) Approximately 5-10 mg of solid is weighed into a tared aluminum pan. The samples are subjected to 0 to 90% RH stepwise with a step size of […] at 25° C. Equilibration criteria are dm/dt of 0.002% over 5 minutes or 360 minutes at a specified % RH. Each sample is equilibrated at each RH step for at least 60 min, and equilibrium is assumed if weight increase is less than 0.1% within one minute, and the maximum duration on each RH is 6 hours. Therefore, each sample is held at a given RH for 1 to 6 hours depending on how fast the equilibrium is reached
The amorphous of Compound 1 (10 mg) is added to a pan for Dynamic Vapor Sorption analysis. The solid is exposed stepwise from 40 to 95 to 0 to 95 to 0% RH at 25° C. Form III is isolated after completing the stepwise exposures.

[2] = Storage stability of samples of Form I at controlled temperature and relative humidity
Protocol: Samples of Form I were maintained for at least 9 months at 25°, and 60% and at least 6 months at 40° and 75% relative humidity.

[3] = Hygroscopicity (water sorption, dynamic vapor sorption); conditions: compared to the anhydrate (Form I) and monohydrate forms (Form III, Form V)
Protocol: as §1, §2

[4] = at least 6 months at 40° and 75% relative humidity
[5] = at least 9 months at 25°, and 60%

Row | SMILES | stability as compared to the amorphous form of Compound 1 ([1]; compared to the amorphous form) | change in particle sized distribution on storage [2, 4] | changes in Raman spectra on storage [2, 4] | increase in impurity levels on storage [2, 4] | increase in water content on storage [2, 4] | change in particle sized distribution on storage [2, 5] | changes in Raman spectra on storage [2, 5] | increase in impurity levels on storage [2, 5] | increase in water content on storage [2, 5] | stability of the solid form under high RH ([1]; high RH, converting to Form III) | hygroscopicity [3]
1 | CCOc1c(C(=O)O)cnn1-c1cccc(-c2cccc(C)c2OCc2ccc3c(c2C)CCN(C2CCOCC2)C3)n1 [Form I] | improved stability | no change in particle sized distribution | no | no increase in impurity levels | no increase in water content | no change in particle sized distribution | no | no increase in impurity levels | no increase in water content | – | –
2 | CCOc1c(C(=O)O)cnn1-c1cccc(-c2cccc(C)c2OCc2ccc3c(c2C)CCN(C2CCOCC2)C3)n1 [amorphous form of Compound 1] | – | – | – | – | – | – | – | – | – | not stable | higher hygroscopicity
